The source of these data is a melting point compilation (Tetko et al.).

Some results are limits rather than exact numbers.

The term melting point denotes the temperature, or range, at which the solid turns liquid. `Cc1cc(Br)cnc1F`: the melting point worked out at 62 °C.

The compound `O=C(O)[C@@H]1Cc2c([nH]c3ccccc23)CN1` had a melting point of 295 to 296 °C.

With `COc1cc([N+](=O)[O-])ccc1Br`, the melting point was found to be 104 °C.

In turn, `CCOC(=O)c1ccc(-n2c(C)ccc2C)cc1` yielded a melting point of 88 to 90 °C.

Compound `CC1CCc2cc3c(cc2N1)CCC(C)N3C(=O)c1ccccc1` (stereo not drawn) yielded a melting point of 145 °C.

On to `Cc1ccc2[nH]c(C)cc2c1`, for which the melting point amounted to 115 °C.

For `Cc1nn(C)c2ncc3c(=O)[nH]n(C)c3c12`, the melting point worked out at 300 °C.

`Nc1ncnc2c1ncn2C1OC(CO)CC1O` (stereo not drawn) gave a melting point of 226 °C.

For the compound `Nc1ccccc1COc1ccccc1`, the melting point amounted to 78 °C.

Compound `C=C1C(=O)C23C(OC)CC4C5(C)CCCC4(COC5)C2C(OC(C)=O)CC1C3OC(C)=O` (stereo not drawn) gave a melting point of 160 °C.

In turn, `NC=NO` gave a melting point of 114 °C.

As for `O=C(O)C(F)(F)C(F)(F)C(F)(F)C(F)(F)C(F)(F)C(F)(F)C(F)(F)C(F)(F)C(=O)O`, the melting point fell in the range of 154 to 160 °C.

Compound `O=S(=O)(c1ccccc1)n1c(CBr)cc2ccccc21` had a melting point of 116 to 117 °C.

On to `O=C(CC(=O)C(F)(F)F)c1ccco1`, for which the melting point stood at 20.5 °C.

Consider `CCOC(=O)C(C#N)=C1Oc2ccccc2N1C`, for which the melting point was 135 to 137 °C.

`Nc1cc(Br)ccn1` had a melting point of 146 °C.

In the case of `N#Cc1ccccc1CN1CCOCC1`, the melting point lay within 49 to 50 °C.

The compound `COc1ccccc1-c1nnc2n1NC(c1ccccc1)S2` (stereo not drawn) showed a melting point of 208 °C.

Take `CCOC(=O)c1ncoc1-c1ccccc1`: the melting point is 32 to 35 °C.

`N[C@@H](CS)C(=O)O` gave a melting point of 240 °C.

As for `CN(O)C(=O)Cc1ccc(OCc2ccccc2)cc1`, the melting point was found to be 96 °C.

In turn, `O=C1c2ccccc2C(=O)N1CC#CCCl` displayed a melting point of 118 °C.

Consider `O=C(O)Cc1ccccc1Nc1c(Cl)cccc1Cl`, for which the melting point turned out to be 157 °C.

Turning to `Cc1cc(C)c(NC(=O)C(C(F)(F)F)C(F)(F)F)c(C)c1`, the melting point was 189 °C.

As to `O=C(Nc1ccc(Br)cc1Br)C(F)(F)C(F)(F)C(F)(F)C(F)(F)C(F)(F)C(F)(F)C(F)(F)C(F)(F)F`, the melting point was 95 °C.

The compound `COC(=O)c1ccno1` had a melting point of 49 °C.

In turn, `CC1CC(C)CC(C)C1` (stereo not drawn) gave a melting point of -49.7 °C.

In turn, `Cc1cccc2[nH]ccc12` came in with a melting point of 5 °C.

The compound `OCc1cccc2[nH]ccc12` displayed a melting point of 67 to 68 °C.

In the case of `Nc1nc(N)c(N=O)c(N)n1`, the melting point stood at 300 °C.

For the compound `N#Cc1cc(Cl)ccc1Cl`, the melting point lay within 130 to 132 °C.

For `CCCCCCCCC(=O)OCCCCC`, the melting point was -27 °C.

For `CC(C)(C)c1cc(N)c(C(N)=O)s1`, the melting point lay within 146 to 148 °C.

Regarding `O=C(Nc1c(Cl)cc(Cl)cc1Cl)C(F)(F)C(F)(F)C(F)(F)C(F)(F)C(F)(F)C(F)(F)C(F)(F)C(F)(F)F`, the melting point was determined as 115 °C.

Consider `[O-][P+](c1ccccc1)(c1ccccc1)C1C2=C(CCCC2)OC2=C1CCCC2`, for which the melting point stood at 157 °C.

The compound `CC(=O)CC(=O)Nc1ccccc1C` yielded a melting point of 105 °C.

`O=C1CC[C@@H](CO)N1` returned a melting point of 78 to 86 °C.

Compound `CCOC(=O)C1(c2ccccc2)CCN(CCc2ccc(N)cc2)CC1` returned a melting point of 83 °C.

Turning to `CCOC(=O)c1sc(Br)nc1C`, the melting point was in the range of 65 to 66 °C.

For the compound `O=CC1=C(Cl)c2cc(Cl)ccc2SC1`, the melting point is 84 to 86 °C.

In the case of `COc1cc2c(cc1OC)C(=S)NCC2`, the melting point was 223 to 226 °C.

Consider `CC(CN1CCOCC1)C(C(=O)N1CCCC1)(c1ccccc1)c1ccccc1` (stereo not drawn), for which the melting point was determined as 180 °C.

For the compound `N#CCc1cc(F)cc(F)c1`, the melting point worked out at 35 °C.

`CCOc1ccc2ccccc2c1C(=O)O` showed a melting point of 144 °C.

`OC(c1ccc(F)cc1)C(O)c1ccc(F)cc1` (stereo not drawn) gave a melting point of 153 °C.

`NC(=O)CF`: the melting point was 108 °C.

The compound `CC12CCC(C(=O)/C(=C\c3ccccc3[N+](=O)[O-])C1=O)C2(C)C` (stereo not drawn) displayed a melting point of 140 to 141 °C.

In turn, `CC(=O)Nc1cc(NC(C)=O)c(C=Cc2ccccc2)cc1C=Cc1ccccc1` showed a melting point of 224 °C.

As for `CCN(Cc1ccncc1)C(=O)C(CO)c1ccccc1` (stereo not drawn), the melting point was found to be 96 °C.

In turn, `CC1CC2C3CC(F)C4=CC(=O)C=CC4(C)C3(F)C(O)CC2(C)C1C(=O)CO` (stereo not drawn) gave a melting point of 242 °C.

`O=[N+]([O-])c1ccc(Nc2ccccc2)cc1` had a melting point of 135 °C.

The compound `Cc1cc(C)c(C(=O)O)c(C)n1` returned a melting point of 130 to 160 °C.

`O=C1C(=Cc2ccc(-c3ccc(Cl)cc3)o2)CCC1=Cc1ccc(-c2ccc(Cl)cc2)o1` yielded a melting point of 264 to 266 °C.

`O=C(CC(=O)c1cc(Br)ccc1O)c1ccccc1` showed a melting point of 100 to 103 °C.

Consider `O=C1C=C(O)c2cccc3cccc1c23`, for which the melting point was in the range of 261 to 264 °C.

For the compound `CCC(C)I` (stereo not drawn), the melting point was -104 °C.

`O=C1Nc2ccc([N+](=O)[O-])cc2C1=O` returned a melting point of 251 °C.

In turn, `CCOC(=O)c1cccc(C(=O)OCC)c1` came in with a melting point of 11.5 °C.

Turning to `CCN(CC)c1ccc(C=C2SC(=S)NC2=O)cc1`, the melting point came out at 163 °C.

As for `COc1cc(F)c(C#N)cc1F`, the melting point amounted to 91 °C.

The compound `ClCc1ccc(CCl)cc1` showed a melting point of 100 °C.

In the case of `NCCCCCCCCCCCCN`, the melting point stood at 70 °C.

As to `CC(C)(C1CCCCC1)C1CCCCC1`, the melting point was 15.6 °C.

In turn, `CCC(C1CCc2cc(O)ccc2C1)C(C)(C)C(=O)O` (stereo not drawn) gave a melting point of 163 °C.

`O=c1c(O)c(-c2ccc(O)c(O)c2)oc2cc(O)ccc12` displayed a melting point of 330 °C.

As to `COC(=O)C1=C(C)NC(C)=C(C(=O)OC)C1c1ccccc1[N+](=O)[O-]`, the melting point is 173 °C.

With `N#Cc1ccccc1-n1cccc1`, the melting point is 51 °C.

`CCOC(=O)c1c(SC)nn(C(=O)c2ccc([N+](=O)[O-])cc2)c1N` showed a melting point of 158 °C.

The compound `Oc1ccc(Cl)c(Cl)c1Cl` yielded a melting point of 83.5 °C.

Consider `CCCOC1CCC2C3CC=C4CC5(CCC4(C)C3CCC12C)OCCO5` (stereo not drawn), for which the melting point was 213 to 214 °C.

As for `CC(C)(C)c1cc2c(O)c(c1)Cc1cc(C(C)(C)C)cc(c1O)Cc1cc(C(C)(C)C)cc(c1O)Cc1cc(C(C)(C)C)cc(c1O)Cc1cc(C(C)(C)C)cc(c1O)C2`, the melting point fell in the range of 310 to 312 °C.

As for `COc1ccccc1-c1ccc(C=C(C(C)=O)C(C)=O)o1`, the melting point lay in the range of 145 to 146 °C.

For the compound `CC(=O)NC1C(OCc2ccccc2)OC2COC(c3ccccc3)OC2C1OC(C)C(=O)O` (stereo not drawn), the melting point was 220 to 222 °C.

Regarding `O=c1ncn2nc(Sc3ccccc3)ccc2c1-c1c(Cl)cccc1Cl`, the melting point lay within 262 to 265 °C.

As to `COc1ccc(C(=O)c2ccc(C)cc2)cc1OC`, the melting point is 109 °C.

As for `CC1CCC2(C)CCC3(C)C(=CCC4C5(C)CCC(O)C(C)(C)C5CCC43C)C2C1C` (stereo not drawn), the melting point came out at 186 °C.

`O=C1c2ccccc2C(O)(O)C1(O)C1(O)C(=O)c2ccccc2C1(O)O` (stereo not drawn) showed a melting point of 240 °C.

In the case of `Cc1cc(C(=O)Nc2ccccc2)no1`, the melting point fell in the range of 136 to 139 °C.

`CN(C)c1ccc(CCC2CCc3ccccc3N2N=O)cc1` (stereo not drawn) came in with a melting point of 91 °C.

Turning to `O=Cc1cc(Cl)c(O)c(Cl)c1`, the melting point was in the range of 154 to 156 °C.

For `CCC(=O)OCC(C)C`, the melting point is -71.4 °C.

The compound `CC(C)=C1OC(=O)N(c2cc(OC3CCCC3)c(Cl)cc2F)C1=O` gave a melting point of 104 °C.

Compound `Cn1c(C(=O)O)cc2occc21` gave a melting point of 200 °C.

The compound `CC1=C(C#N)Cc2ccccc21` came in with a melting point of 63 to 63.6 °C.

As for `C=C1C2CC(C(=C(c3ccccc3)c3ccccc3)C2c2ccccc2)C1(C)C` (stereo not drawn), the melting point was 115 °C.

`O=C(C=NO)Nc1ccccc1` gave a melting point of 175 °C.

`Cc1cnc(N)c(I)c1` returned a melting point of 88 °C.

`CC(C)(C)c1ccc(S(=O)(=O)Cl)cc1`: the melting point turned out to be 82 °C.

`Cc1ccc(O)c(F)c1F`: the melting point is 37 °C.

As to `Cc1ccccc1NCCNc1ccccc1C`, the melting point turned out to be 72 °C.

For `C=C=N`, the melting point is -78 °C.

Regarding `FC(F)(F)C(F)(F)C(F)(F)C(F)(F)C(F)(F)F`, the melting point is -100 °C.

Turning to `CC#Cc1cc(C)nc(Nc2ccccc2)n1`, the melting point is 133 °C.

Compound `O=C(O)COc1cccc(OCC(=O)O)c1` gave a melting point of 194 °C.

For `O=c1[nH]cc(C(F)(F)F)c(=O)[nH]1`, the melting point amounted to 316 °C.

As for `Oc1ccc(-c2ccccc2)cc1Cl`, the melting point worked out at 77 °C.

`O=C(Nc1ccc([N+](=O)[O-])cc1Cl)C1(F)C(F)(F)C(F)(F)C(F)(F)C(F)(F)C1(F)F` returned a melting point of 93 °C.

`NC(=O)OCCCc1ccccc1` gave a melting point of 102 °C.

Take `NCCNC(=O)CCn1cnc2c(N)ncnc21`: the melting point came to 196 °C.

For the compound `CC1=CC(C)N=N1` (stereo not drawn), the melting point was 108 °C.

`O=C1CC2C(Cl)CC1C2C(=O)O` (stereo not drawn): the melting point fell in the range of 157 to 160 °C.

`CC12CCC=C1C1CCC3=CC(=O)CCC3(C)C1CC2` (stereo not drawn) registered a melting point of 117 °C.

On to `Cc1ccc(C(=O)OC2CC(C#N)OC2OC(=O)c2ccc(C)cc2)cc1` (stereo not drawn), for which the melting point lay within 110 to 111 °C.

In turn, `Cc1cc(C)c2cnn(-c3ccccc3)c2n1` yielded a melting point of 66 °C.

Compound `Nc1ccc2c(c1)C(=O)c1ccc(N)cc1C2=O` displayed a melting point of 325 °C.

`CCCN(CC)CC1COC2(CCC(C(C)(C)C)CC2)O1` (stereo not drawn) registered a melting point of less than 25 °C.

On to `CC(Nc1ccccn1)=C(C#N)C(=O)c1ccccc1`, for which the melting point is 151 to 152 °C.

Turning to `Cc1ccc(S(=O)(=O)N[C@@H](c2ccccc2)[C@@H](N)c2ccccc2)cc1`, the melting point was in the range of 127 to 130 °C.
